pIC50: −log10 of the molar value. Peptide text beside a SMILES is read from it. * marks the point of attachment. Cbz = O=C(OCc1ccccc1)*

Experiment [1] concerns bleomycin-induced lung injury in C57BL/6J mice. Briefly: Bleomycin lung fibrosis model in mice. In kind it is in vivo. The settings on record: bleomycin 0.05 U i.t., 7-21 days; estimated 5 mg/kg/d. How it is done:
(§1) FIG. 7A. […] FIG. 7B. Structures of the BC-1480 backbone and lead compound BC-1485. FIG. 7C. FIEL1 protein was HIS-purified from FIEL1 expression in 293T cells using cobalt beads. Beads were then extensively washed prior to exposure to BC-1480 or BC-1485 at different concentrations (10^−4 to 100 μM). Purified PIAS4 protein was then incubated with drug-bound FIEL1 beads overnight. Beads were washed, and proteins were eluted and resolved on SDS-PAGE. The relative amounts of PIAS4 detected in the pull-downs was normalized to loading and quantified (n=2). FIG. 7D. MLE cells were exposed to BC-1480 or BC-1485 at various concentrations for 18 h. Cells were then collected and immunoblotted. FIGS. 7E-J. C57BL/6J mice were administered with bleomycin (0.05 U) for 7-21 days. Compounds BC-1480 and BC-1485 were given to mice through drinking water with an estimated dose of 5 mg/kg/d. Mice were euthanized, and lungs were lavaged with saline, harvested, and then homogenized. Lavage proteins, CXCL1, and total cell count were measured in FIGS. 7E-G. H. Survival studies of mice that were given bleomycin and compound treatments. Mice were carefully monitored over time; moribund, preterminal animals were immediately euthanized and recorded as deceased. Kaplan-Meier survival curves were generated using SPSS software (p<0.01 compared to Vehicle). Vehicle: n=24, BC-1480: n=13, BC-1485: n=12. FIG. 7I. Hydroxyproline contents were measured in lungs from 7, 14, and 21d after bleomycin challenge. FIG. 7J. Trichrome staining was performed on lung samples from E. Original magnification, ×10. *p<0.05 compared to Vehicle (t-test). Data are an average of two experiments (FIGS. 7E-J, 4-8 mice/group)
C57BL/6J mice were administered i.t. with bleomycin (0.05 U) for 7-21 days. Compounds BC-1480 and BC-1485 were given to mice through drinking water with an estimated dose of 5 mg/kg/d. Mice were then euthanized, and lungs were lavaged with saline, harvested, and then homogenized. Lavage IL-6 was measured in (FIG. 16A). Lavage cells were also processed for Wright-Giemsa stain; Lavage macrophages, neutrophils and lymphocytes were counted and graphed (FIGS. 16B-16D). H&E staining was performed on lung samples from A. Original magnification, ×10. *p<0.05 compared to Vehicle (t test). Data are an average of two experiments (A-E, 4-8 mice/group).
Murine lungs were dried and weighed prior to digestion with HCl. Hydroxyproline concentrations were measuring using methods previously described in Kesava Reddy et al., Clinical Biochemistry, 29(3): 225-229 (1996), and Neuman et al., J. of Biol. Chem., 184(1): 299-306 (1950). Hydroxyproline content was normalized to dry lung weight.
All procedures were approved by the University of Pittsburgh Institutional Animal Care and Use Committee. For fibrosis studies, male C57BL/6J mice were deeply anesthetized using a ketamine/xylazine mixture, and the larynx was well visualized under a fiber optic light source before endotracheal intubation with a 3/400 24-gauge plastic catheter. 10^7 CFU of lentivirus encoding genes for Empty (E), FIEL1, CON shRNA, or KIAA0317 shRNA was given i.t. for 144 h before administration of bleomycin (0.02 U˜0.05 U i.t.) for up to 21 days. Animals were euthanized and assayed for BAL protein, cell count, cytokines, and lung infiltrates. Survival studies were performed on mice that were given bleomycin (0.02 U˜0.05 U i.t.). Mice were carefully monitored over time; moribund, preterminal animals were immediately euthanized and recorded as deceased. For drug studies, mice were deeply anesthetized as above. Bleomycin (0.05 U i.t.) was given i.t. before BC-1480 or BC-1485 (5 mg/kg/d) was administered to the mice through their drinking water. 7-21d later, animals were euthanized and analyzed as above.

Experiment [2] has as its target T1, FIEL1/PIAS4 interaction (Homo sapiens, UniProt O15033).
T1 construct: made in house; host or cells: 293T cells (FIEL1)
T1 sequence (O15033 1-789 isoform O15033-2): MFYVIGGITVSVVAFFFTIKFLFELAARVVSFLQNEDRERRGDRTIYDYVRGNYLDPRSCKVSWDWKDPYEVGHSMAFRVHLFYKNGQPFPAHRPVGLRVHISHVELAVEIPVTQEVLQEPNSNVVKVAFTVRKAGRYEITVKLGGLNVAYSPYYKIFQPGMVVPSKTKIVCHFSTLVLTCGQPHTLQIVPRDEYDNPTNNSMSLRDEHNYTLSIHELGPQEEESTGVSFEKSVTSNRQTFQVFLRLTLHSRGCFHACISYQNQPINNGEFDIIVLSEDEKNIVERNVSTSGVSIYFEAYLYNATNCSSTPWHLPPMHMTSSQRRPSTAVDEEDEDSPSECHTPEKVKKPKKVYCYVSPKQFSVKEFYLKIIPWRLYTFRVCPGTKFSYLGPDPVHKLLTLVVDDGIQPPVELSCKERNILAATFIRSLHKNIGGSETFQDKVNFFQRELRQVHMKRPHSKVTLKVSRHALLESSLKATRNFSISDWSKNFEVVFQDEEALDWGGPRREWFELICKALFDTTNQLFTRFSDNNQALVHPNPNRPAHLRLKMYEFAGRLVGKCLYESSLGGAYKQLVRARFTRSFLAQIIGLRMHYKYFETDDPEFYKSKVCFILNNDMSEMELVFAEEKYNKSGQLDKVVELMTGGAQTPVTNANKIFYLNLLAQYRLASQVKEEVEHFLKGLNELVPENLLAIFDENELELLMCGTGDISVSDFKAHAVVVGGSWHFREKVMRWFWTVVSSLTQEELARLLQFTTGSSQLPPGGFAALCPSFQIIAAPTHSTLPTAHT
Nature of the experiment: In vitro drug binding assay: PIAS4 pull-down on drug-bound FIEL1 beads. The conditions noted are these: FIG. 7. How it is done: as §1
FIEL1 protein was HIS-purified from FIEL1 expression 293T cells using cobalt beads. Beads were then extensively washed prior to exposure to BC-1480 or BC-1485 at different concentrations (10^−4 to 100 μM). Purified recombinant PIAS4 protein was then incubated with drug-bound FIEL1 beads overnight. […] The relative amounts of PIAS4 detected in the pull-downs were normalized to loading and quantified.

Experiment [3] concerns α-SMA expression in MRC5 cells. Nature of the experiment: α-SMA expression in MRC5 cells co-treated with TGFβ. In kind it is cell-based, human. The conditions noted are these: Homo sapiens; MRC5 cells, TGFβ 2 ng/ml, 18 h; FIG. 15D; read-out: IC50 for decrease of α-SMA expression. How it is done: (§2) FIG. 15A. Diagram of the BC-1485 synthesis process. FIGS. 15B-15C. Docking studies of the lead compound, BC-1485, interacting with the FIEL1-HECT domain. FIG. 15D. MRC5 cells were treated with the compound at various doses; cells were also co-treated with TGFβ at 2 ng/ml. 18 h later, cells were collected and assayed for α-SMA expression. FIG. 15E. MRC5 cells were seeded in 35 mm glass bottom dishes before co-treatment with TGFβ at 2 ng/ml and BC-1480 or BC1485 at 5μM. FIG. 15F. PIAS4 protein half-life determination after BC-1480 or BC1485 treatment at 5μM for 18 h. FIG. 15G. PIAS4 and KIAA0317 mRNA analysis after BC1485 treatment for 18 h.
MLE cells were cultured in Dulbecco's Modified Eagle Medium-F12 (Gibco) supplemented with 10% fetal bovine serum (DMEM-10). 293T cells were cultured in Dulbecco's Modified Eagle Medium (Gibco) supplemented with 10% fetal bovine serum (DMEM-10). MRC5 cells were cultured in Eagle's Minimum Essential Medium (Gibco) supplemented with 10% fetal bovine serum (EMEM-10). For protein expression in MLE cells, nucleofection was used following Amaxa's protocol. For protein overexpression in 293T cells, Fugene6HD transfection reagents were used following the manufacturer's protocol. For protein expression in MRC5 cells, MRC-5 Cell Avalanche™ Transfection Reagent was used following manufacturer's protocol. Cells were treated with TGFβ at 0-2 ng/ml for 0-18 h. For FIEL1, PKCξ, or GSK3β knockdown studies in cells, scramble shRNA, KIAA0317, PKCξ, or GSK3β shRNA were used to transfect cells for 48 h. For drug treatment, compounds were solubilized in DMSO before being added to the cells for up to 18 h. Cell lysates were prepared by brief sonication in 150 mM NaCl, 50 mM Tris, 1.0 mM EDTA, 2 mM dithiothreitol, 0.025% sodium azide, and 1 mM phenylmethylsulfonyl fluoride (Buffer A) at 4° C. For half-life study, MLE cells were exposed to cycloheximide (40 μg/ml) in a time dependent manner for up to 8 h. Cells were then collected and immunoblotted.

Experiment [4] deals with PIAS4. Briefly: PIAS4 protein half-life study (cycloheximide) in MLE cells. In kind it is cell-based, murine. The settings on record: addition of proteasomal or lysosomal inhibitor; FIG. 9B.
Source text: FIG. 9A. PIAS4 protein half-life study in MLE cells transfected with Empty plasmid or Ubiquitin plasmid. FIG. 9B. PIAS4 protein half-life study with MG132 or Leupeptin. FIG. 9C. Immunoblots showing levels of PIAS4 proteins and V5 after ectopic FIEL1 or UBE3B plasmid expression. FIG. 9D. Immunoblots showing levels of FIEL1 proteins after ectopic FIEL1 plasmid expression in MLE, HeLa, and 293T cells. FIG. 9E. Immunoblots showing levels of PIAS4 proteins and V5 after ectopic FIEL1 plasmid expression in HeLa and 293T cells. FIG. 9F. MLE cells were transfected with an inducible control or FIEL1 plasmid under control of exogenous doxycycline. Cells were treated with doxycycline in a dose dependent manner. Cells were then collected and cell lysates were immunoblotted for FIEL1 and PIAS4. FIG. 9G. MRC5 cells were exposed to TGFβ for 24 h before being assayed for PIAS4 and FIEL1 protein half-lives.
as §2
MLE cells were cultured in Dulbecco's Modified Eagle Medium-F12 (Gibco) supplemented with 10% fetal bovine serum (DMEM-10). 293T cells were cultured in Dulbecco's Modified Eagle Medium (Gibco) supplemented with 10% fetal bovine serum (DMEM-10). MRC5 cells were cultured in Eagle's Minimum Essential Medium (Gibco) supplemented with 10% fetal bovine serum (EMEM-10). For protein expression in MLE cells, nucleofection was used following Amaxa's protocol. For protein overexpression in 293T cells, Fugene6HD transfection reagents were used following the manufacturer's protocol. […]

For the compound `O=C(O)c1ccc(NS(=O)(=O)c2ccc3[nH]c(=O)[nH]c3c2)cc1` [BC-1480, 4-(2-oxo-2,3-dihydro-1H-benzo[d]imidazole-5-sulfonamido)benzoic acid], the “lung (pulmonary) fibrosis” value in experiment [1] is “inhibition of pulmonary fibrosis”. For the same compound, the “inhibition of FIEL1 and PIAS4 interaction” value in experiment [2] is “inhibition of FIEL1 and PIAS4 interaction”. Moreover, the negative logarithm of the IC50 (pIC50) in experiment [3] was about 5.40.

As to `CC(=O)N[C@@H](CC(C)C)C(=O)N[C@@H](CC(C)C)C(=O)N[C@H](C=O)CCCNC(=N)N` [Leupeptin], the PIAS4 protein half-life result in experiment [4] is “an effect unobserved”. On the same count and under the same terms, the entry for `CC(C)C[C@@H](C=O)NC(=O)[C@H](CC(C)C)NC(=O)[C@H](CC(C)C)NC(=O)OCc1ccccc1` [MG132] (Cbz-Leu-Leu-Leu-aldehyde) is “significantly increased”.

As usually defined, the pIC50 is the negative decadic logarithm of the IC50, by convention in mol/L.

The values are drawn from patent publication US10968183B2, “Small molecule FIEL1 inhibitor in inflammatory and fibrotic lung injury” (UNIVERSITY OF PITTSBURGH—OF THE COMMONWEALTH SYSTEM OF …, priority 2015, dated 2021).
